Here are results for 1 compound from patent US20260272936A1, “TREATMENT OF CANCER WITH A PARG INHIBITOR” (858 Therapeutics, Inc., priority 2023, published 2026).

One assay has as its target T1, 5-HT2A receptor (Homo sapiens, UniProt P28223).
T1 construct: Eurofins (contract study)
Nature of the assay: Follow-on study, agonist and antagonist IC50. Particulars: antagonist. It is filed as binding.

The next assay concerns SNU-601 cells. Nature of the assay: 6-day cell proliferation, nuclei count. It is filed as cell-based. Particulars: Homo sapiens. From the text: (§1) The FU-97 (Cat #JCRB1074) human gastric cancer cell line and the Kuramochi (Cat #JCRB0098) and RMUG-S(Cat #IFO50320) human ovarian cancer cell lines were obtained from the National Institutes of Biomedical Innovation, Health and Nutrition's Japanese Collection of Research Bioresources (JCRB) (Ibaraki City, Osaka, Japan). The HCC1419 (Cat #CRL-2326) and HCC1428 (Cat #CRL-2327) human breast cancer cell lines and the NCI-H1650 (Cat #CRL-5883) and NCI-H1792 (Cat #CRL-5895) non-small cell lung cancer cell lines were obtained from ATCC (Manassas, Virginia, USA). The human gastric cancer cell lines GCIY (Cat #RCB0555) and SNU601 (Cat #CSC-C9686L) were obtained from the Riken Bioresource Research Center (Tsukuba, Ibaraki, Japan) and Creative Bioarray (Shirley, NY, USA), respectively. The T025OV ovarian cancer organoid model was developed from a patient-derived xenograft (PDX) model, which was developed from primary serous ovarian carcinoma cells obtained from Discovery Life Sciences (Huntsville, AL, USA, SN #350627149). T026OV organoids were developed from PDX cells obtained from The Jackson Laboratory (Bar Harbor, ME, USA, Cat #TM00335).
(§2) All cell lines were grown in an incubator at 37° C. in 5% CO2. The Kuramochi and SNU-601 cells were cultured in RPMI+glutaMAX™ (Thermo Fisher Scientific, Waltham, MA, USA Cat #74200120) containing 1% penicillin/streptomycin (pen/strep) (Thermo Fisher Scientific Cat #15070-063), and 10% fetal bovine serum (FBS) (Thermo Fisher Scientific Cat #A31605-02). The HCC1419, HCC1428, NCI-H1650, and NCI-H1792 cells were cultured in ATCC-modified RPMI+glutaMAX™ (Thermo Fisher Scientific Cat #A10491-01) containing 1% pen/strep and 10% FBS. The FU-97 cells were cultured in DMEM+glutaMAX™ (Thermo Fisher Scientific, Waltham, MA, USA Cat #10566-016) containing 1% pen/strep, 10% FBS and 0.01 mg/mL bovine insulin (MilliporeSigma, Burlington, MA, USA Cat #10516-5ML). The GCIY cells were cultured in MEM (Thermo Fisher Scientific Cat #11095-080) containing 1% pen/strep and 15% FBS. The RMUG-S cells were cultured in Ham's F12 medium+glutaMAX™ (Thermo Fisher Scientific Cat #31765-035) containing 10% FBS and 1% pen/strep.
(§3) Compound 1 IC50 values for inhibition of cell proliferation were determined by imaging and counting the number of nuclei after compound treatment. Cells were harvested with trypsin (Thermo Fisher Scientific, Cat #25200-056) and plated in black-walled, clear bottom 96-well Corning costar 3603 plates (VWR, Radnor, PA, USA Cat #29444-008) at 7500 cells/well (HCC1428 and HCC1419), 5000 cells/well (Kuramochi, FU-97, SNU-601), 2500 cells/well (RMUG-S, GCIY, NCI-H1650) or 1000 cells/well (NCI-H1792) in 100 μL normal growth media and incubated overnight at 37° C., 5% CO2. The following day, a 1000× Compound 1 concentration curve was prepared by serial dilution of Compound 1 in 100% DMSO. The 1000× Compound 1 concentration curve was diluted 1:200 into growth media to generate a 5× concentration curve in 0.5% DMSO/growth medium before addition of 25 μL of the 5× compound to the wells. Control wells received 25 μL of 0.5% DMSO/media alone (negative control wells) or 50 μM Compound 1 (positive controls; 10 μM Compound 1 final). The plate was mixed gently on a plate shaker, covered with Breathe-Easy biofilm (Diversified Biotech, Cat #BEM-1), and incubated at 37° C., 5% CO2 for 6 days. Following the incubation period, a 125 μL fixation/permeabilization solution containing 8% paraformaldehyde (Fisher Scientific, Cat #50-980-495, part of Thermo Fisher Scientific) and 0.2% Triton X-100 (Thermo Fisher Scientific, Cat #327372500) in PBS was added to each well of the plate, and the plates were incubated at room temperature for 20 min. The solution was aspirated and cells washed by the addition of 100 μL PBS. After aspiration of the PBS, nuclei were stained by the addition of 100 μL 1 μg/mL DAPI (Thermo Fisher Cat #62248) in PBS. […]

Another assay concerns RMUG-S cells. Nature of the assay: 6-day cell proliferation, nuclei count. Type of assay: cell-based. Particulars: Homo sapiens, 144 h.
Description: as §1, §2, §3

The test system of a further assay is NCI-H1650 cells. The assay is described as follows: 6-day cell proliferation, nuclei count. Type of assay: cell-based. Particulars: Homo sapiens.
Description: as §1, §2, §3

A further assay relates to Kuramochi cells. Nature of the assay: 6-day cell proliferation, nuclei count. Particulars: Homo sapiens, 144 h. Type of assay: cell-based.
Description: as §1, §2, §3

The test system of a further assay is GCIY cells. Nature of the assay: 6-day cell proliferation, nuclei count. It is filed as cell-based. Particulars: Homo sapiens, 144 h.
Description: as §1, §2, §3

The next assay deals with OVCAR3 cells. Nature of the assay: 6-day growth assay, Compound 1 in combination with camonsertib. It is filed as cell-based. Particulars: Homo sapiens, OVCAR-3, 144 h, read-out: Compound 1 IC50, 6-Day Nuclei Count.
Setting [1] is: read-out: IC50 inhibition of proliferation.

Read-outs that look alike come from different tables or passages of the source.

T1 sequence (P28223 whole entry): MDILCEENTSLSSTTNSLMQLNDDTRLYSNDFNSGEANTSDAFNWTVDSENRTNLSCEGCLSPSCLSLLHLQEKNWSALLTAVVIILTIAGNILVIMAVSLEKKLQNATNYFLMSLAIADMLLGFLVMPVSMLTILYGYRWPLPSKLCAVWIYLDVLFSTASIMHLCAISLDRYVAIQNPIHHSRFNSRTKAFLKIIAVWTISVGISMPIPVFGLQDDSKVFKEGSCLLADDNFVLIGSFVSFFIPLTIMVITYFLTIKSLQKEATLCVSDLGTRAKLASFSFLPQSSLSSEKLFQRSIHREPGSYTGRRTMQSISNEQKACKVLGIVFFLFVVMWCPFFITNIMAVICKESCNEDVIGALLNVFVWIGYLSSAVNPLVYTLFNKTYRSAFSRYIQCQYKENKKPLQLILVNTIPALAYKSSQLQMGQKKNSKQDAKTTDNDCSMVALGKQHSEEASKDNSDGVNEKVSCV

For `[2H]C([2H])(c1cnn(C)c1)N1C(=O)c2cc(S(=O)(=O)NC3(C)CC3)ccc2N2C1=NC[C@H]2C` [Compound 1, (R)-1-methyl-4-((1-methyl-1H-pyrazol-4-yl)methyl-d2)-N-(1-methylcyclopropyl)-5-oxo-1,2,4,5-tetrahydroimidazo[1,2-a]quinazoline-7-sulfonamide], the IC50 at 5-HT2A receptor amounted to 21000 nM; in the assay with SNU-601 cells (SNU-601, 144 h, read-out: IC50 inhibition of proliferation) it was 149 nM; in the assay with RMUG-S cells (setting [1]) it was 75 nM; with NCI-H1650 cells (NCI-H1650, 144 h, read-out: IC50 inhibition of proliferation) it was 100 nM; in the assay on Kuramochi cells (setting [1]), 46 nM; in the assay on GCIY cells (setting [1]), 28 nM. Moreover, the IC50 with OVCAR3 cells (camonsertib 0.032 nM) came to 39000 nM; with OVCAR3 cells (camonsertib 0.32 nM), 44000 nM; with OVCAR3 cells (camonsertib 3.2 nM), 29000 nM; in the assay with OVCAR3 cells (camonsertib 10 nM), 12000 nM; with OVCAR3 cells (camonsertib 32 nM), 2000 nM; with OVCAR3 cells (camonsertib 100 nM), 270 nM. In addition, the Kb (in general, the equilibrium dissociation constant of an antagonist, usually derived from a functional assay) at 5-HT2A receptor (read-out: dissociation constant (KB)) was found to be 4200 nM. Besides, the IC90 is 539 nM with SNU-601 cells (144 h, SNU-601, 6 days, geometric mean, read-out: IC90 inhibition of proliferation); 208 nM in the assay with RMUG-S cells (RMUG-S, 6 days, geometric mean, read-out: IC90 inhibition of proliferation); 320 nM in the assay on NCI-H1650 cells (144 h, NCI-H1650, 6 days, geometric mean, read-out: IC90 inhibition of proliferation); 133 nM in the assay with Kuramochi cells (Kuramochi, 6 days, geometric mean, read-out: IC90 inhibition of proliferation); 125 nM in the assay on GCIY cells (6 days, geometric mean, read-out: IC90 inhibition of proliferation).
